Test results published in ChEMBL document CHEMBL1201862, “PubChem BioAssay data set” (2004).
Activity calls are given as the source filed them.

Key:
Estrogen receptor [1] = target: T1, Estrogen receptor (Homo sapiens, UniProt P03372); assay: potentiators of ERα–SRC-1 coactivator binding, dose response, biochemical, TR-FRET, ERα LBD (AID 737)
T1 sequence (P03372 whole entry): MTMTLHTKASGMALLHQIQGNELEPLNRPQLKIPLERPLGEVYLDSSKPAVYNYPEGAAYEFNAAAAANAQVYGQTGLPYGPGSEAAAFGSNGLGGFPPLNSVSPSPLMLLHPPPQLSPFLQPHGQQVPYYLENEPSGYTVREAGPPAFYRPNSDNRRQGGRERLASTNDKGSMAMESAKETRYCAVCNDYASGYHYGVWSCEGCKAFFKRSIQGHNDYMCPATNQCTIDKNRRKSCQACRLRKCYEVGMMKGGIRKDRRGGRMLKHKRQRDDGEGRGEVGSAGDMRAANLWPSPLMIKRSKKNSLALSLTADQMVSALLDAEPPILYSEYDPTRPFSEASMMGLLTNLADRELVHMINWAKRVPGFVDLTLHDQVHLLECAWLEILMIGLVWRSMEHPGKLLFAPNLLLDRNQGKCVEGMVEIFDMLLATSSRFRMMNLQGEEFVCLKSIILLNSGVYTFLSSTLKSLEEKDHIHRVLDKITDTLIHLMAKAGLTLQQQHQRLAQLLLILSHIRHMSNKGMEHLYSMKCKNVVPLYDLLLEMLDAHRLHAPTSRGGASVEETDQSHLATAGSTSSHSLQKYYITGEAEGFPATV

[2] = Shn3 3'UTR reporter inhibitors, dose response, cell-based, Clone20 osteoblasts, firefly luciferase, cherry-picked (AID 624132); type: functional;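 also: firefly luciferase luminescence from reporter carrying the Shn3 3'UTR in osteoblasts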
[3] = HepG2 cell cytotoxicity, dose response, cytotoxicity control for Shn3 inhibitor project, CellTiter-Glo, cherry-picked (AID 624134); type: functional, cell-based
[4] = control 3'UTR Renilla luciferase suppression, dose response, counter-screen for Shn3 inhibitor project, cell-based, Clone20-Shn3RL, cherry-picked (AID 624133); type: functional
[5] = target: T2, Heat shock 70 kDa protein 1A (Homo sapiens, UniProt P0DMV8); assay: Hsp70 inhibitors, biochemical, TR-FRET (AID 786)
[6] = target: T2, Heat shock 70 kDa protein 1A; assay: Hsp70 inhibitors, probe displacement, primary screen, biochemical, fluorescence polarization (AID 583)
Estrogen receptor [7] = target: T1, Estrogen receptor
Estrogen receptor beta [8] = target: T3, Estrogen receptor beta (Homo sapiens, UniProt Q92731);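 also: recombinant ER-beta bound to coactivator SRC1 peptide in presence of estradiol agonist; inhibitors block coactivator peptide binding and lower the FRET signal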
Estrogen receptor beta [9] = target: T3, Estrogen receptor beta; assay: ERβ–SRC-3 coactivator interaction inhibitors, confirmation, orthogonal assay, biochemical, ELISA, streptavidin-HRP readout (AID 1060)
[10] = Luminescence Cell-Based Dose Retest to Confirm Inhibitors of Cancer Stem Cells. [Related pubchem assays (depositor defined):AID2717, AID2721]; type: functional; conditions: Homo sapiens
Bcl-2-like protein 10 = target: T4, Bcl-2-like protein 10 (Homo sapiens, UniProt Q9HD36); assay: Biochemical TR3 FP assay of Bcl-B inhibitor potency, EC50 (AID 1243); type: functional
T4 sequence (Q9HD36 whole entry): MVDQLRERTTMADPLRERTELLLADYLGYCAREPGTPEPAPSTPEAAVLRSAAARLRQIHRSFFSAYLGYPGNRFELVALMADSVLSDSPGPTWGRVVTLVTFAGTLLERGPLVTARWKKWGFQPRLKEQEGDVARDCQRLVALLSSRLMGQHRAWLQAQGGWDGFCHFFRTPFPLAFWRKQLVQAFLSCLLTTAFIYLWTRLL

[11] = target: T5, Neuropeptide Y receptor type 2 (Homo sapiens, UniProt P49146); assay: NPY-Y2 antagonist potency, selectivity check, dose response, counter-screen for NPY-Y1 antagonist project, cell-based (AID 1278); type: functional
T5 sequence (P49146 whole entry): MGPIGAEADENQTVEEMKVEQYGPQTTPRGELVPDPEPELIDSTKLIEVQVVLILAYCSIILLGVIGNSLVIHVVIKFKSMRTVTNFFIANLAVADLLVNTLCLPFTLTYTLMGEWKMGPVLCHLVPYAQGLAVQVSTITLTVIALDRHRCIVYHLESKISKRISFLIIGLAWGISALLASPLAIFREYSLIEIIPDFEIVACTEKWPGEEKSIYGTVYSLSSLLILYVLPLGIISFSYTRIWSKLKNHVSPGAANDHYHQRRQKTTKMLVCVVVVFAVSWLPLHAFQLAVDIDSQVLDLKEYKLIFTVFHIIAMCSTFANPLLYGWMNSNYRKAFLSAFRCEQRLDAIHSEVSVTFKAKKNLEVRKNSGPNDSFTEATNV

[12] = target: T6, Neuropeptide Y receptor type 1 (Homo sapiens, UniProt P25929); assay: NPY-Y1 receptor antagonist potency, dose response, cell-based (AID 1277); type: functional
T6 sequence (P25929 whole entry): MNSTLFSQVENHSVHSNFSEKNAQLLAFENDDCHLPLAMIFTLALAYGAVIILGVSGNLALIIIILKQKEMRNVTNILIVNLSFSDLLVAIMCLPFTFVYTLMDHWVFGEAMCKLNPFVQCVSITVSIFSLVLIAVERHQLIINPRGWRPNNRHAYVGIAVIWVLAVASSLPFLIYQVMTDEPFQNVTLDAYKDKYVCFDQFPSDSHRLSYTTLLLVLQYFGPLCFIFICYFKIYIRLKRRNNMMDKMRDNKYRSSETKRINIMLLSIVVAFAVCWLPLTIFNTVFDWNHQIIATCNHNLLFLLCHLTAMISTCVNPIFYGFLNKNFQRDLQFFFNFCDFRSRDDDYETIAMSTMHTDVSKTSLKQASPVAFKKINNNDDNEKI

[13] = target: Peroxisome proliferator-activated receptor gamma/Nuclear receptor coactivator 2 (Homo sapiens, UniProt P37231); type: functional;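 also: agonist potency for raising coactivator recruitment to the receptor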
[14] = target: Peroxisome proliferator-activated receptor gamma/Nuclear receptor coactivator 1 (Homo sapiens, UniProt P37231); type: functional;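 also: agonist potency as compounds enhance coactivator SRC-1 recruitment to PPARgamma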
[15] = Luminescence Cell-Based Dose Confirmation HTS to Identify Activators of 5'UTR Stem-Loop Driven Alpha-Synuclein mRNA Translation in H4 Neuroglioblastoma Cells. [Related pubchem assays: 1829 (Project Summary), 1814 (Primary HTS)]; type: functional
[16] = Luminescence Cell-Based Dose Response HTS to Identify Activators of Luciferase Translation or Activity in H4 […] Cells. [Related pubchem assays: 1829 (Project Summary), 1814 (Primary HTS)]; type: functional
[17] = target: Peroxisome proliferator-activated receptor gamma/Nuclear receptor coactivator 3 (Homo sapiens, UniProt P37231); type: functional;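 also: agonist potency for raising coactivator recruitment to the receptor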
H4 = assay: Luminescence Cell-Based Dose Response HTS to Identify Activators of 5'UTR Stem-Loop Driven Prion Protein mRNA Translation in H4 Neuroglioblastoma Cells. [Related pubchem assays: 1829 (Project Summary), 1814 (Primary HTS)]; type: functional; conditions: Homo sapiens
[18] = target: Protein-tyrosine kinase 2-beta (Homo sapiens, UniProt Q14289);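 also: potency of inhibitors of PYK2 kinase phosphorylation of poly-GT substrate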
CHO-K1 = assay: Counterscreen for antagonists of the orexin 1 receptor (OX1R; HCRTR1): Homogeneous time resolved fluorescence (HTRF)-based cell-based dose response assay to identify antagonists of the parental CHO-K1 cell line. [Related pubchem assays (depositor defined):AID434989, AID435008, AID463079, AID485270, AID492963, AID492964, AID492965, AID493232, AID504699, AID504701]; type: functional; conditions: Cricetulus griseus;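 also: potency for inhibition of ATP-stimulated IP1 production as antagonists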
[19] = Counterscreen for antagonists of the orexin 1 receptor (OX1R; HCRTR1): Fluorescence-based cell-based high throughput dose response assay to identify antagonists of the parental CHO cell line. [Related pubchem assays (depositor defined):AID434989, AID435008, AID463079, AID485270, AID492963, AID492964, AID492965, AID493232, AID504699, AID504701]; type: functional
[20] = target: T7, Orexin/Hypocretin receptor type 1 (Homo sapiens, UniProt O43613); assay: Homogeneous Time Resolved Fluorescence (HTRF)-based cell-based high throughput dose response assay for antagonists of the orexin 1 receptor (OX1R; HCRTR1). [Related pubchem assays (depositor defined):AID434989, AID435008, AID463079, AID485270, AID492963, AID492964, AID492965, AID493232, AID504717, AID504718]; type: functional
T7 sequence (O43613 whole entry): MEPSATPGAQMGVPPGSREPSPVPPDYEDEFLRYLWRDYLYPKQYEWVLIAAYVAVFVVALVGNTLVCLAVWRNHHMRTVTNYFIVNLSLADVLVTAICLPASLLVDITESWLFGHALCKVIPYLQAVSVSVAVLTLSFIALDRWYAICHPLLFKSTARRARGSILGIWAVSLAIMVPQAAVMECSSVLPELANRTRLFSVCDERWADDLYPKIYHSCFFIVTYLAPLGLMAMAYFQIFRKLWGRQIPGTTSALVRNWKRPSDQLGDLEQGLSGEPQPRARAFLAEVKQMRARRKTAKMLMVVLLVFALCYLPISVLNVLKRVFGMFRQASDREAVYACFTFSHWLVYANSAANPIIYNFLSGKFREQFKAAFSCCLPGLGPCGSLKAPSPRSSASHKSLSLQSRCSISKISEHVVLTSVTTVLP

[21] = target: T7, Orexin/Hypocretin receptor type 1; assay: Fluorescence-based cell-based high throughput dose response assay for antagonists of the orexin 1 receptor (OX1R; HCRTR1). [Related pubchem assays (depositor defined):AID434989, AID435008, AID463079, AID485270, AID492963, AID492964, AID492965, AID493232, AID504717, AID504718]; type: functional
Cytochrome P450 2C19 = Cytochrome P450 2C19 (Homo sapiens, UniProt P33261); assay: Cytochrome panel assay with activity outcomes. Panel member name: p450-cyp2c19 Compounds with AC50 equal or less than 10 uM are considered active; type: functional; conditions: read-out: AC50
Orexin receptor type 2 [22] = target: T8, Orexin receptor type 2 (Homo sapiens, UniProt O43614); assay: Counterscreen assay for antagonists of the orexin 1 receptor (OX1R; HCRTR1): Fluorescence-based cell-based dose response assay for antagonists of the orexin 2 receptor (OX2R; HCRTR2), run by assay provider.; type: functional
T8 sequence (O43614 whole entry): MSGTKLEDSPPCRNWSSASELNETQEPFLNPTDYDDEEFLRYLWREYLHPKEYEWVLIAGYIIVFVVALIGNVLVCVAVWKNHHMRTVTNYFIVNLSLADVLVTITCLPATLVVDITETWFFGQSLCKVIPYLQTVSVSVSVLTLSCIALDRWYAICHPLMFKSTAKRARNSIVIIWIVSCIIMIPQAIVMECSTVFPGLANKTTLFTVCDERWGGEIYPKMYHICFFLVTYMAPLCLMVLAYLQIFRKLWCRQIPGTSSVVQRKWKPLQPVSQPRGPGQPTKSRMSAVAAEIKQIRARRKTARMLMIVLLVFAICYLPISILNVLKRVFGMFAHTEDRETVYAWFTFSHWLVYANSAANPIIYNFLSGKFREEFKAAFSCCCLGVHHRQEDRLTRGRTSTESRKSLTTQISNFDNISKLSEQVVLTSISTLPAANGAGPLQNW

Orexin receptor type 2 [23] = target: T8, Orexin receptor type 2; assay: Counterscreen assay for antagonists of the orexin 1 receptor (OX1R; HCRTR1): Homogeneous Time Resolved Fluorescence (HTRF)-based cell-based dose response assay for antagonists of the orexin 2 receptor (OX2R; HCRTR2), run by assay provider.; type: functional
[24] = inhibitors of Vif binding to APOBEC3G peptide, primary screen, biochemical, TR-FRET, GST-Vif 1-94, biotin-A3G peptide, dose response retest (AID 1117319); type: functional;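 also: TR-FRET signal of purified GST-Vif binding a biotinylated A3G peptide; inhibitors lower the FRET signal by blocking Vif and A3G binding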
Cytochrome P450 3A4 = Cytochrome P450 3A4 (Homo sapiens, UniProt P08684);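 also: CYP3A4 tested as one member of a cytochrome P450 panel screen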
Cytochrome P450 2C9 = Cytochrome P450 2C9 (Homo sapiens, UniProt P11712)
[25] = target: Sphingosine 1-phosphate receptor 4 (Homo sapiens, UniProt O95977); assay: Fluorescence dose response cell-based high throughput screening assay for antagonists of the Sphingosine 1-Phosphate Receptor 4 (S1P4). [Related pubchem assays: 1524 (Confirmation in triplicates.), 1510 (Primary screen.)]; type: functional
[26] = target: Sphingosine 1-phosphate receptor 1 (Homo sapiens, UniProt P21453); type: functional;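 also: Tango beta-arrestin reporter U2OS cells stimulated with S1P near its EC80; inhibitor potency meaning antagonism of receptor activation by the natural agonist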
Sphingosine 1-phosphate receptor 1, sequence (P21453 whole entry): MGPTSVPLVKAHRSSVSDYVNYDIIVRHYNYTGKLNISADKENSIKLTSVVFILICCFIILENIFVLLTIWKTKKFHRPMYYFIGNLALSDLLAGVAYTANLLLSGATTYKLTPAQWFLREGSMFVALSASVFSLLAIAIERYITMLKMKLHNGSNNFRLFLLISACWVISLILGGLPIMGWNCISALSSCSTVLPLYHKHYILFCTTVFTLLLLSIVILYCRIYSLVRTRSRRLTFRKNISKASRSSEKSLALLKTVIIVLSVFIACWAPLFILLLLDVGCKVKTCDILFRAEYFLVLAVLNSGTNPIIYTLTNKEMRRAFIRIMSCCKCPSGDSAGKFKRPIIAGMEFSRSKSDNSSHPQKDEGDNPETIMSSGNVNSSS

T3 sequence (Q92731 whole entry): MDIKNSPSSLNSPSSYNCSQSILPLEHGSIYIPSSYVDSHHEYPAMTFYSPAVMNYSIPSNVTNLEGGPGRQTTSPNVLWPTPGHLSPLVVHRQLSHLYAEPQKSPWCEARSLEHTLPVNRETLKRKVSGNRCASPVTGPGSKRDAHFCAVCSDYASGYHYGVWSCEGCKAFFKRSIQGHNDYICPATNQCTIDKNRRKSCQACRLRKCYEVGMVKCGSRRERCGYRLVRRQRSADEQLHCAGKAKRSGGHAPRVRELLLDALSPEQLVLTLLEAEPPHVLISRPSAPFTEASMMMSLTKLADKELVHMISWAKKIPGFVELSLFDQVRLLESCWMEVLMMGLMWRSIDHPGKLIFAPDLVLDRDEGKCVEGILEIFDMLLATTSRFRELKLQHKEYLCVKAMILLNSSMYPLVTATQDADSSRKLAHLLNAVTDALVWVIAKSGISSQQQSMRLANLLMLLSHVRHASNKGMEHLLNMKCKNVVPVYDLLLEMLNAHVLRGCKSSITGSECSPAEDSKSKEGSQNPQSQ
T2 sequence (P0DMV8 whole entry): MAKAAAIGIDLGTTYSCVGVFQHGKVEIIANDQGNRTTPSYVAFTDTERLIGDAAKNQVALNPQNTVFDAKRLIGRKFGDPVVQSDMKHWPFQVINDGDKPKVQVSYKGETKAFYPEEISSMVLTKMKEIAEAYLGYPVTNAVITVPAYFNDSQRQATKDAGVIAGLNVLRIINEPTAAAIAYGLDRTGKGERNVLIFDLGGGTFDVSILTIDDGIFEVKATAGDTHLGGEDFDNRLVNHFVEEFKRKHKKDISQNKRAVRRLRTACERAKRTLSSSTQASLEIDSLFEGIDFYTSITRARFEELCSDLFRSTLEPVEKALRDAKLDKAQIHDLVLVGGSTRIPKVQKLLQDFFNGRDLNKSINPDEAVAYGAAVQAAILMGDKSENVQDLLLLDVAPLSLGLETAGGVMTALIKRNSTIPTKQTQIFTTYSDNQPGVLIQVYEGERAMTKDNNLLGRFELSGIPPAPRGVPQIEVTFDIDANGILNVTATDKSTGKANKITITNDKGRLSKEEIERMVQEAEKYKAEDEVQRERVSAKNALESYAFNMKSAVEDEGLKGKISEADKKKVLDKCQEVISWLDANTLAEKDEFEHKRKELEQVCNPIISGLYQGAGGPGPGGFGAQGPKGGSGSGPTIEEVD
Sphingosine 1-phosphate receptor 4, sequence (O95977 whole entry): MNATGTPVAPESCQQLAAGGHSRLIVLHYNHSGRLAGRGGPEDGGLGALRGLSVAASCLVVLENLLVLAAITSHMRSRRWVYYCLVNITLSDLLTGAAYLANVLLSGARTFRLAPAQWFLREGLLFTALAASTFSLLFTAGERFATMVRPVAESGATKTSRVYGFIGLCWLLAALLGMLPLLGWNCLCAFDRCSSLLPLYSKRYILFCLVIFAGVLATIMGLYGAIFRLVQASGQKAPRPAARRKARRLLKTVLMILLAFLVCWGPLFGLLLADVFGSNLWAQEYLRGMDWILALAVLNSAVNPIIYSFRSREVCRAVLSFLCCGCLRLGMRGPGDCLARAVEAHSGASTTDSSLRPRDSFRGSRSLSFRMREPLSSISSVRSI
Cytochrome P450 2C9, sequence (P11712 whole entry): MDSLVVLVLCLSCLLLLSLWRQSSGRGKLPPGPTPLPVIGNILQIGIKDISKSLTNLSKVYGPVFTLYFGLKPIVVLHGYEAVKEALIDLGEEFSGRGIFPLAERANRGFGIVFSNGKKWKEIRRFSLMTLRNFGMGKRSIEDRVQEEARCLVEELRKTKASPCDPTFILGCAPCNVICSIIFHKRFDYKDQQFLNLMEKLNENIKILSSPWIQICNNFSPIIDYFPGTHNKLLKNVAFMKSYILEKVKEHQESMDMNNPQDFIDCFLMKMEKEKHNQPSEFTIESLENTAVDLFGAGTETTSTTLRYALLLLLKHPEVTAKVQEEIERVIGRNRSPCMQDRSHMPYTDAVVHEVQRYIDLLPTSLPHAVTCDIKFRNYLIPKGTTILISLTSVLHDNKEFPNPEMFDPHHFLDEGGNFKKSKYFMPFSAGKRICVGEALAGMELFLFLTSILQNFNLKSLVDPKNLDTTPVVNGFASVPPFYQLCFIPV
Cytochrome P450 3A4, sequence (P08684 whole entry): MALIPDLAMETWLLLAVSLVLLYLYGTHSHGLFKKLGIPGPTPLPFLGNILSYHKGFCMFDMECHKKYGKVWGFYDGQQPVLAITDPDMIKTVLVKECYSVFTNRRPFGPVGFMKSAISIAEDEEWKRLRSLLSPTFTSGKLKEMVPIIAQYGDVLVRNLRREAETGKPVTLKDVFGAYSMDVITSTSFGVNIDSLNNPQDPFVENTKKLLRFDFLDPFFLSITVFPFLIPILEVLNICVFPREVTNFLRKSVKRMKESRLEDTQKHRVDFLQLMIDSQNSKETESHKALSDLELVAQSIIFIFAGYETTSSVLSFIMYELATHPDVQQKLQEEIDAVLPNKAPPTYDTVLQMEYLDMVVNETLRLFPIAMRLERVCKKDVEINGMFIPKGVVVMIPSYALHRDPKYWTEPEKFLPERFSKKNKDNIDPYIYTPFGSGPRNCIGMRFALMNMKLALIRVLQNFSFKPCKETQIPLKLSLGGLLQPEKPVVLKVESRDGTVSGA
Cytochrome P450 2C19, sequence (P33261 whole entry): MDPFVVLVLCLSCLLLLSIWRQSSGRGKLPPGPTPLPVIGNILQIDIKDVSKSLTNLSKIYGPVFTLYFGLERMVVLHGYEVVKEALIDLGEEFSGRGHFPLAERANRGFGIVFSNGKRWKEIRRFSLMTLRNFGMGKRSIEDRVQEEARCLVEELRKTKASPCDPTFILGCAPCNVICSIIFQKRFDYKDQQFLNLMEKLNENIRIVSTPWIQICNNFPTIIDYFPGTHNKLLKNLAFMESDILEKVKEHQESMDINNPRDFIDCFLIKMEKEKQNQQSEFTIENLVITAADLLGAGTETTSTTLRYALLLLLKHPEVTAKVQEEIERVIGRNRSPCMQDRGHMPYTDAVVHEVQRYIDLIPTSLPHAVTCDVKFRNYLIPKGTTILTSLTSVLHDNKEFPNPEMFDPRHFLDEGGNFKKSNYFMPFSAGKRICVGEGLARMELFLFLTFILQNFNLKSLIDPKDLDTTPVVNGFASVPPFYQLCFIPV
Protein-tyrosine kinase 2-beta, sequence (Q14289 whole entry): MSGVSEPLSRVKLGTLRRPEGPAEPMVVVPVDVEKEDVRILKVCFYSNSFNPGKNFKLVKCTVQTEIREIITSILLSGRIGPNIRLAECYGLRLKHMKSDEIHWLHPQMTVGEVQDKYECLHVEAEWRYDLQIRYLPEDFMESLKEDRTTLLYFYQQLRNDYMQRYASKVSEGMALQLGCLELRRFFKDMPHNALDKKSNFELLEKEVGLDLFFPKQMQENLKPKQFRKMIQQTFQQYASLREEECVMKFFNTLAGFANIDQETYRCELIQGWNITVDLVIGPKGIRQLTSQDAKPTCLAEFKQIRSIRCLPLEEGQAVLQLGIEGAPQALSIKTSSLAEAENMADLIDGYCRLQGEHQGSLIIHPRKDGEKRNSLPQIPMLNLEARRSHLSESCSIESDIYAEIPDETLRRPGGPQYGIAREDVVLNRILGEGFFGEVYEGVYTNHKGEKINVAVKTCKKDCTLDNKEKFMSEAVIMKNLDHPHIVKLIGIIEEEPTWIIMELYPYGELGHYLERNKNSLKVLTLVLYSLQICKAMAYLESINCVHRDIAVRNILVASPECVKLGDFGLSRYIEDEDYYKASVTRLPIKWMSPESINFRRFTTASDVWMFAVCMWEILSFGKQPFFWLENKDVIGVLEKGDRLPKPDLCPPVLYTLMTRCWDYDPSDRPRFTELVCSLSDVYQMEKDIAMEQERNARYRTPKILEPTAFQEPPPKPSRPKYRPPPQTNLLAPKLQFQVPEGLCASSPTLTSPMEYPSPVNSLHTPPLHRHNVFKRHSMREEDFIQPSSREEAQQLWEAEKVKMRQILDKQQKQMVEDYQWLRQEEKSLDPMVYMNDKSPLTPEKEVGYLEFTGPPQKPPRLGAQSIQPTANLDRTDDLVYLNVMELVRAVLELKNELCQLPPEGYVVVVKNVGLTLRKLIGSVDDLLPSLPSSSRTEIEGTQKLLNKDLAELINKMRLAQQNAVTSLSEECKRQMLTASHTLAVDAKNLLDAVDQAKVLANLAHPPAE

CCOC(=O)N1CCN(S(=O)(=O)c2ccc(C(=O)Nc3nc4ccc(F)cc4s3)cc2)CC1
EC50 (Estrogen receptor [1]): 11.6 µM (active) | AC50 [2]: 4.79 µM (active) | AC50 [3]: > 70 µM (inactive) | AC50 [4]: 3.38 µM (active)

Cc1ccc(C(=O)ONc2ccc(N=NC(=O)c3ccccc3O)cc2)cc1
IC50 [5]: 12.4 µM (active) | IC50 [6]: 25.2 µM (active) | IC50 (Estrogen receptor [7]): 8.44 µM (active) | IC50 (Estrogen receptor beta [8]): 8.2 µM (active) | IC50 (Estrogen receptor beta [9]): < 23 nM (not active) | AC50 [10]: 1.51 µM (active)

COc1ccccc1NC(=O)C1=C(C)NC(SCC(=O)c2ccc(Br)cc2)=C(C#N)C1c1ccco1 (configuration not stated)
EC50 (Bcl-2-like protein 10): 6.24 µM (active)

Cc1cccc(OCCNC(=O)c2ccc(Oc3ccc(C(F)(F)F)cc3[N+](=O)[O-])cc2)c1
IC50 [11]: > 35 µM (not active) | IC50 [12]: > 35 µM (not active)

CSc1nc2ccc3nc(NC(=O)c4cccs4)sc3c2s1
EC50 [13]: 25.5 µM (not active) | EC50 [14]: 35.9 µM (not active) | EC50 [15]: 6.88 µM (active) | EC50 [16]: 28 µM (active) | EC50 [17]: 33.2 µM (not active) | EC50 (H4): > 120 µM (not active) | IC50 [18]: 6.5 µM (active) | IC50 (CHO-K1): > 66.2 µM (inactive) | IC50 [19]: > 49.7 µM (inactive) | IC50 [20]: 846 nM (active) | IC50 [21]: 1.23 µM (active) | AC50 (Cytochrome P450 2C19): 2.82 µM (inconclusive) | IC50 (Orexin receptor type 2 [22]): > 88.8 µM (inactive) | IC50 (Orexin receptor type 2 [23]): > 50 µM (inactive) | IC50 [24]: > 100 µM (active) | AC50 (Cytochrome P450 3A4): 20 µM (inconclusive) | AC50 (Cytochrome P450 2C9): 355 nM (inconclusive)

O=C1c2cccc3c([N+](=O)[O-])ccc(c23)C(=O)N1CC1CCCO1 (configuration not stated)
IC50 [25]: 1.3 µM (active) | IC50 [26]: 3.72 µM (active)
